{"source": "patent US20060286630A1", "about": "“Posh interacting proteins and related methods” (Proteologics, Inc., priority 2003, published 2006)", "key": {"HBV": {"system": "HBV", "assay": "Inhibition of HBV production in HepG2.2.15 cells", "type": "cell-based", "details": "3 μM, treated every 24 hours for 4 days, FIG. 35 lanes 7 and 8", "description": "HepG2.2.15 cells were plated on 9 cm dishes and allowed to grow in 8% FCS for 5 days up to 70% confluence. After 5 days, cells were washed twice with PBS and re-supplied with fresh DMEM without FCS. In this medium, cells were treated every 24 hours with the depicted solutions (3 μl solution/11 ml medium) for another 4 days (4 treatments total). After 4 days, medium was collected from each plate, viruses were sedimented and analyzed.\nDetection of HBV proteins was performed essentially as described in Paran, N et al (2001) EMBO J 20(16):4443-4453."}, "HIV-1 [1]": {"system": "HIV-1", "details": "Cartier et al., 2003, J Biol Chem., 278:35211-9; cited from earlier work"}, "HIV-1 [2]": {"system": "HIV-1", "details": "H89 50 μM; HeLa SS6 cells transfected with pNLenv-1; VLPs collected twenty minutes after shift from 20° C. to 37° C.", "procedure": "HeLa SS6 cells were transfected with pNLenv-1PTAP or pNLenv-1ATAA (L-domain mutant). Eighteen hours post-transfection, cells were transferred to 20° C. for two hours in order to inhibit transport of viral particles from the trans-Golgi (TGN) to the plasma membrane (PM). Subsequently, the PKA inhibitor, H89 (50 μM) (Biosource, Cat. No. PHZ1114) or DMSO were added to the cells and dishes were transferred to 37° C. to initiate transport from the TGN to the PM. Reverse transcriptase activity was assayed from virus-like-particles collected from cell supernatant twenty minutes later."}, "[3]": {"system": "Bacterially expressed recombinant maltose-binding-protein (MBP)-hPOSH [MBP: P0AEX9]"}}}
{"compound": "O=C1C=CC(=O)N1c1ccc(OC(F)(F)C(F)F)c(N2C(=O)C=CC2=O)c1", "note": "[CAS number 14567-55-4]", "values": [{"measurement": "HBV production", "setting": "HBV", "value": "inhibit HBV production"}]}
{"compound": "Oc1c(Br)cc(Cl)cc1/C=N/c1ccccc1Br", "note": "[CAS number 414908-38-0]", "values": [{"measurement": "HBV production", "setting": "HBV", "value": "inhibit HBV production"}]}
{"compound": "O=S(=O)(NCCNCC=Cc1ccc(Br)cc1)c1cccc2cnccc12", "note": "[H89, N-[2-((Pbromocinnamyl)amino)ethyl]isoquinolinesulfonamide]", "values": [{"measurement": "HIV-1 release from cells", "setting": "HIV-1 [1]", "value": "able to block HIV-1 release from cells"}, {"measurement": "RT activity of virus-like particles collected from cell supernatant", "setting": "HIV-1 [2]", "value": "complete inhibition"}]}
{"compound": "PKA catalytic subunit (PKAc)", "values": [{"measurement": "in-vitro phosphorylation of MBP-hPOSH by PKA catalytic subunit, immunoblot", "setting": "[3]", "value": "POSH is phosphorylated by PKA"}]}
